Test results taken from publication PMC7101335, “Aryl-alkyl-lysines: Novel agents for treatment of C. difficile infection” (Scientific Reports, 2020).
In brackets after ≈: the same amount, converted by molar mass. Read-outs that look alike come from different tables or passages of the source.

What was measured:
[1] = system: Clostridium difficile; test: Broth microdilution MIC against Clostridium difficile strains; type: cell-based; details: Clostridioides difficile
Protocol: The broth microdilution assay was utilized following the Clinical and Laboratory Standards Institute (CLSI) guidelines with slight modifications. Briefly, C. difficile strains were grown on anaerobic blood agar plates (Becton Dickinson, BD) and suspended in brain heart infusion supplemented broth (Brain heart infusion medium, BD, supplemented with yeast extract, L-cysteine, Vitamin K1 and Hemin, Sigma) to achieve a bacterial concentration of ~10^5 CFU/ml. The bacterial suspension was seeded in 96-well plates containing drugs/compounds, in duplicate, at the required concentration. Plates were then incubated at 37 °C anaerobically for 48 hours. MICs reported are the lowest concentration of each agent that inhibited the visual growth of bacteria.

[2] = system: E. faecalis; test: Broth microdilution MIC against E. faecalis strains; type: cell-based; details: Enterococcus faecalis, read-out: Minimum inhibitory concentration
[3] = system: E. faecium; test: Broth microdilution MIC against E. faecium strains; type: cell-based; details: Enterococcus faecium, read-out: Minimum inhibitory concentration
[4] = system: human ileocecal colorectal adenocarcinoma cell line (HRT-18); test: Cytotoxicity, MTS assay, HRT-18 cells; type: cell-based; details: 32 µg mL^−1, 2 hours
Protocol: Briefly, ~2 × 10^4 cells suspended in 100 µL of RPMI-1640 supplemented with 10% horse serum were seeded in a 96-well plate and incubated at 37 °C with 5% CO2. The cells were cultured for 24 hours until reaching ~90% confluency. The cells were further incubated with the aforementioned concentrations of the compounds for 2 hours. Afterwards, culture media were discarded and the cells in each well were washed with PBS and 100 µL of cell culture media were added prior to addition of the assay reagent MTS 3-(4,5-dimethylthiazol-2-yl)-5-(3-carboxymethoxyphenyl)-2-(4-sulfophenyl)-2H-tetrazolium) (Promega). The plates were incubated for 4 hours at 37 °C in a humidified 5% CO2 atmosphere. The absorbance was recorded at 490 nm and the corrected absorbance readings (actual absorbance readings for each treatment subtracted from background absorbance) were taken using a kinetic ELISA microplate reader (SpectraMax i3x, Molecular Devices, Sunnyvale, CA, USA). The quantity of viable cells after treatment with each compound was expressed as a percentage of the control, DMSO. Asterisk (*) denotes a significant difference from the DMSO-treated cells using 2-way analysis of variance (ANOVA) followed by Dunnett’s pairwise comparison.

[5] = system: vancomycin-resistant and vancomycin-susceptible strains of Enterococcus; test: Broth microdilution MIC against Enterococcus strains (E. faecalis and E. faecium, summary in text); type: cell-based; details: all E. faecalis and E. faecium strains tested, vancomycin-resistant and -sensitive
[6] = Caco-2 bidirectional permeability assay; type: in vitro ADME, human; details: human, Caco-2
Protocol: The Caco-2 bidirectional permeability assay was conducted as described in previous reports[29],[30],[41],[42]. The Caco-2 cell line is similar to human enterocytes and expresses P-glycoprotein and other relevant metabolic enzymes that affect absorption of orally-administered xenobiotics across the intestinal mucosa[34],[43],[44]. Caco-2 cells were grown in tissue culture flasks, trypsinized (by rinsing cells with phosphate-buffered saline and then treating with trypsin-EDTA for 5–10 minutes at 37 °C with 5% CO2 until cells detached), suspended in Dulbecco’s Modified Eagle Medium with 10% fetal bovine serum, 1% nonessential amino acids and penicillin-streptomycin, and then seeded onto wells of a Millipore 96-well Caco-2 plate. Cells were cultured at 37 °C with 5% CO2 until confluent (approximately three weeks) and media was changed at relevant time points. For Apical to Basolateral (A → B) permeability, the test article was added to the apical (A) compartment and the amount of permeation (Papp, as calculated below) to the basolateral (B) compartment was determined; for Basolateral to Apical (B → A) permeability, the test article was added to the B compartment and the amount of permeation to the A compartment was determined. […] Caco-2 cells were incubated with these buffers for two hours, and the receiver side buffer was removed for analysis by LC/MS/MS. To verify the tight junctions and integrity of Caco-2 cell monolayers, aliquots of the cell buffers were analyzed by fluorescence (Lucifer yellow transport ≤ 2%). Any deviations from control values are reported. Data are expressed as permeability (Papp) = (dQ/dt)/(C0A) where dQ/dt is the rate of permeation, C0 is the initial concentration of test agent, and A is the area of the monolayer.

Question: Which results are given for `CN[C@H](CC(C)C)C(=O)N[C@H]1C(=O)N[C@@H](CC(N)=O)C(=O)N[C@H]2C(=O)N[C@H]3C(=O)N[C@H](C(=O)N[C@H](C(=O)O)c4cc(O)cc(O)c4-c4cc3ccc4O)[C@H](O)c3ccc(c(Cl)c3)Oc3cc2cc(c3O[C@@H]2O[C@H](CO)[C@@H](O)[C@H](O)[C@H]2O[C@H]2C[C@](C)(N)[C@H](O)[C@H](C)O2)Oc2ccc(cc2Cl)[C@H]1O` [Vancomycin, reference compound]?
Answer: MIC ([1]; C. difficile strains P8, P13 and Isolate 10): 0.5 µg/mL (≈ 0.345 µM); MIC ([1]; read-out: Minimum inhibitory concentration, C. difficile Isolate 1 (NR-13427)): 1 µg/mL (≈ 0.69 µM); MIC ([1]; read-out: Minimum inhibitory concentration, C. difficile Isolate 2 (NR-13428)): 1 µg/mL (≈ 0.69 µM); MIC ([1]; read-out: Minimum inhibitory concentration, C. difficile Isolate 4 (NR-13430)): 0.5 µg/mL (≈ 0.345 µM); MIC ([1]; read-out: Minimum inhibitory concentration, C. difficile Isolate 5 (NR-13431)): 0.5 µg/mL (≈ 0.345 µM); MIC ([1]; read-out: Minimum inhibitory concentration, C. difficile Isolate 6 (NR-13432)): 0.5 µg/mL (≈ 0.345 µM); MIC ([1]; read-out: Minimum inhibitory concentration, C. difficile Isolate 9 (NR-13435)): 0.5 µg/mL (≈ 0.345 µM); MIC ([1]; read-out: Minimum inhibitory concentration, C. difficile Isolate 10 (NR-13436)): 0.5 µg/mL (≈ 0.345 µM); MIC ([1]; read-out: Minimum inhibitory concentration, C. difficile P2 (NR-32883)): 0.5 µg/mL (≈ 0.345 µM); MIC ([1]; read-out: Minimum inhibitory concentration, C. difficile P4 (NR-32889)): 2 µg/mL (≈ 1.38 µM); MIC ([1]; read-out: Minimum inhibitory concentration, C. difficile P8 (NR-32888)): 0.5 µg/mL (≈ 0.345 µM); MIC ([1]; read-out: Minimum inhibitory concentration, C. difficile P13 (NR-32891)): 0.5 µg/mL (≈ 0.345 µM); MIC ([1]; read-out: Minimum inhibitory concentration, C. difficile P15 (NR-32892)): 0.5 µg/mL (≈ 0.345 µM); MIC ([1]; read-out: Minimum inhibitory concentration, C. difficile P20 (NR-32896)): 1 µg/mL (≈ 0.69 µM); MIC ([1]; read-out: Minimum inhibitory concentration, C. difficile P21 (NR-32897)): 0.5 µg/mL (≈ 0.345 µM); MIC ([1]; read-out: Minimum inhibitory concentration, C. difficile P29 (NR-32903)): 0.5 µg/mL (≈ 0.345 µM); MIC ([1]; the rest of the C. difficile strains): 0.5 to 1 µg/mL (≈ 0.345 to 0.69 µM); MIC [2]: 1 µg/mL (≈ 0.69 µM); MIC [3]: > 128 µg/mL

Question: Which results are given for `CCCCCCN(Cc1cccc2ccccc12)C(=O)[C@@H](N)CCCCN` [NCK-6]?
Answer: MIC ([1]; C. difficile Isolate 1 (NR-13427), read-out: Minimum inhibitory concentration): 64 µg/mL (≈ 173 µM); MIC ([1]; C. difficile Isolate 2 (NR-13428), read-out: Minimum inhibitory concentration): 64 µg/mL (≈ 173 µM); MIC ([1]; C. difficile Isolate 4 (NR-13430), read-out: Minimum inhibitory concentration): 64 µg/mL (≈ 173 µM); MIC ([1]; C. difficile Isolate 5 (NR-13431), read-out: Minimum inhibitory concentration): 32 µg/mL (≈ 86.6 µM); MIC ([1]; C. difficile Isolate 6 (NR-13432), read-out: Minimum inhibitory concentration): 64 µg/mL (≈ 173 µM); MIC ([1]; C. difficile Isolate 9 (NR-13435), read-out: Minimum inhibitory concentration): 32 µg/mL (≈ 86.6 µM); MIC ([1]; C. difficile Isolate 10 (NR-13436), read-out: Minimum inhibitory concentration): 64 µg/mL (≈ 173 µM); MIC ([1]; C. difficile P2 (NR-32883), read-out: Minimum inhibitory concentration): 64 µg/mL (≈ 173 µM); MIC ([1]; C. difficile P4 (NR-32889), read-out: Minimum inhibitory concentration): 64 µg/mL (≈ 173 µM); MIC ([1]; C. difficile P8 (NR-32888), read-out: Minimum inhibitory concentration): 64 µg/mL (≈ 173 µM); MIC ([1]; C. difficile P13 (NR-32891), read-out: Minimum inhibitory concentration): 64 µg/mL (≈ 173 µM); MIC ([1]; C. difficile P15 (NR-32892), read-out: Minimum inhibitory concentration): 64 µg/mL (≈ 173 µM); MIC ([1]; C. difficile P20 (NR-32896), read-out: Minimum inhibitory concentration): 64 µg/mL (≈ 173 µM); MIC ([1]; C. difficile P21 (NR-32897), read-out: Minimum inhibitory concentration): 32 µg/mL (≈ 86.6 µM); MIC ([1]; C. difficile P29 (NR-32903), read-out: Minimum inhibitory concentration): 32 µg/mL (≈ 86.6 µM); MIC ([1]; across all tested strains of C. difficile): 32 µg/mL (≈ 86.6 µM); MIC ([2]; E. faecalis B3196): 128 µg/mL (≈ 346 µM); MIC ([2]; E. faecalis B3286): 128 µg/mL (≈ 346 µM); MIC ([2]; E. faecalis B3336): 128 µg/mL (≈ 346 µM); MIC ([2]; E. faecalis SF24397): 128 µg/mL (≈ 346 µM); MIC ([2]; E. faecalis SF28073 (vancomycin-resistant)): 128 µg/mL (≈ 346 µM); MIC ([3]; E. faecium E417 (vancomycin-resistant)): 64 µg/mL (≈ 173 µM); MIC ([3]; E. faecium E1071): 128 µg/mL (≈ 346 µM); MIC ([3]; E. faecium UAA714): 128 µg/mL (≈ 346 µM); toxicity to HRT-18 cells [4]: survived; MIC [5]: 64 to 128 µg/mL (≈ 173 to 346 µM)

Question: With `CC(=O)CC(c1ccccc1)c1c(O)c2ccccc2oc1=O` (stereo not drawn) [Warfarin] as the compound, how does the efflux ratio at 2 h ([6]; Re = (Papp B→A)/(Papp A→B)) read?
Answer: 1.54

Question: What about the Papp A→B at 2 h ([6]; apical (pH 6.5) to basolateral (pH 7.4), two hours) of the same compound?
Answer: 12.7 ×10⁻⁶ cm/s

Question: And the Papp B→A at 2 h ([6]; basolateral to apical, two hours)?
Answer: 19.6 ×10⁻⁶ cm/s
